Source: the supplement of paper PMC10307832

Tests used:
Assay in all cases: relative viability (nuclei count vs DMSO), 5 days (fraction); higher = more cells survive
[1] = compound: N[C@@H]1CCCN(c2c(/C=C3\SC(=O)NC3=O)cccc2-c2ccccc2)C1 [AZD1208] + CC(=O)c1c(C)c2cnc(Nc3ccc(N4CCNCC4)cn3)nc2n(C2CCCC2)c1=O [Palbociclib] (partner 0.5 µM)
How it was run: (§1)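 Nuclei were stained with Hoechst during a one-step fixation (final 0.05% Triton X-100, 1% formaldehyde, 1 ug/ml Hoechst) carried out 5 days after dosing, then counted on 4× images. The cells, lung cancer lines in 1536-well plates, had been dosed by pin tool the day after seeding with one drug alone or a fixed anchor-drug dose plus five library-drug doses (not always all listed) in √10 steps. Relative viability is the nuclei count in treated wells divided by that in vehicle wells, and each value is the median of duplicate plates.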

[2] = compound: N[C@@H]1CCCN(c2c(/C=C3\SC(=O)NC3=O)cccc2-c2ccccc2)C1 [AZD1208] + CCNC(=O)c1noc(-c2cc(C(C)C)c(O)cc2O)c1-c1ccc(CN2CCOCC2)cc1 [Luminespib] (partner 0.01 µM)
How it was run: as §1

[3] = compound: N[C@@H]1CCCN(c2c(/C=C3\SC(=O)NC3=O)cccc2-c2ccccc2)C1 [AZD1208] + N=C(N)NC(=N)NCCc1ccccc1 [Phenformin] (partner 250 µM)
How it was run: as §1

[4] = compound: CN1CCN(CC1)C2=CC(=C(C=C2)NC3=NC(=C(S3)C(=O)C4=C(C=CC=C4Cl)Cl)N)OC [XMD14-99] + CS(=O)(=O)CCNCc1ccc(-c2ccc3ncnc(Nc4ccc(OCc5cccc(F)c5)c(Cl)c4)c3c2)o1 [Lapatinib] (partner 2 µM)
How it was run: as §1

| Cell Line | relative viability ([1]; first compound 0.08 µM) | relative viability ([1]; first compound 0.253 µM) | relative viability ([1]; first compound 0.8 µM) | relative viability ([1]; first compound 2.53 µM) | relative viability ([1]; first compound 8 µM) | relative viability ([2]; first compound 0.08 µM) | relative viability ([2]; first compound 0.253 µM) | relative viability ([2]; first compound 0.8 µM) | relative viability ([2]; first compound 2.53 µM) | relative viability ([2]; first compound 8 µM) | relative viability ([3]; first compound 0.08 µM) | relative viability ([3]; first compound 0.253 µM) | relative viability ([3]; first compound 0.8 µM) | relative viability ([3]; first compound 2.53 µM) | relative viability ([3]; first compound 8 µM) | relative viability ([4]; first compound 0.08 µM) | relative viability ([4]; first compound 0.8 µM) | relative viability ([4]; first compound 2.53 µM) | relative viability ([4]; first compound 8 µM) |
| --- | --- | --- | --- | --- | --- | --- | --- | --- | --- | --- | --- | --- | --- | --- | --- | --- | --- | --- | --- |
| NCI-H2342 | 0.494 | 0.456 | 0.494 | 0.548 | 0.456 | 0.686 | 0.713 | 0.653 | 0.672 | 0.533 | 0.563 | 0.585 | 0.52 | 0.569 | 0.462 |  |  |  |  |
| SK-MES-1 | 0.299 | 0.348 | 0.316 | 0.307 | 0.311 | 0.771 | 0.736 | 0.607 | 0.689 | 0.531 | 0.668 | 0.672 | 0.648 | 0.696 | 0.621 | 0.416 | 0.46 | 0.432 | 0.403 |
| NCI-H1993 | 0.595 | 0.578 | 0.439 | 0.544 | 0.432 | 0.522 | 0.561 | 0.692 | 0.566 | 0.523 | 0.538 | 0.468 | 0.522 | 0.471 | 0.488 | 0.881 | 0.767 | 0.749 | 0.745 |
| HCC-366 | 0.408 | 0.482 | 0.376 | 0.404 | 0.245 |  |  |  |  |  | 0.588 | 0.668 | 0.538 | 0.655 | 0.431 | 1.06 | 1.06 | 1.13 | 0.854 |
| 201T | 0.371 | 0.366 | 0.351 | 0.35 | 0.34 | 1.07 | 1.02 | 0.961 | 1.12 | 0.98 | 0.434 | 0.444 | 0.429 | 0.427 | 0.351 | 1.02 | 1.05 | 1 | 0.936 |
| HCC-827 | 0.493 | 0.411 | 0.405 | 0.481 | 0.509 | 0.735 | 0.677 | 0.307 | 0.373 | 0.408 | 0.423 | 0.436 | 0.425 | 0.418 | 0.378 | 0.182 | 0.205 | 0.188 | 0.197 |
| NCI-H650 | 0.309 | 0.287 | 0.314 | 0.29 | 0.289 | 0.865 | 0.768 | 0.789 | 0.757 | 0.819 | 0.535 | 0.51 | 0.448 | 0.416 | 0.427 | 0.92 | 0.956 | 0.663 | 0.774 |
| NCI-H2085 | 0.462 | 0.473 | 0.52 | 0.482 | 0.474 | 0.439 | 0.388 | 0.427 | 0.461 | 0.381 | 0.679 | 0.677 | 0.675 | 0.688 | 0.668 | 0.76 | 0.794 | 0.735 | 0.693 |
| NCI-H596 |  |  |  |  |  | 0.912 | 1.19 | 0.999 | 1.05 | 0.79 | 0.674 | 1.01 | 0.689 | 0.668 | 0.477 | 1.12 | 1.05 | 1.17 | 0.938 |
| SK-LU-1 | 0.341 | 0.373 | 0.375 | 0.421 | 0.401 | 0.186 | 0.198 | 0.194 | 0.226 | 0.198 | 0.502 | 0.543 | 0.408 | 0.506 | 0.42 | 0.969 | 0.841 | 0.74 | 0.565 |
| A-427 | 0.546 | 0.548 | 0.495 | 0.551 | 0.527 | 0.788 | 1 | 0.829 | 0.762 | 0.712 | 0.318 | 0.367 | 0.257 | 0.323 | 0.262 | 1.14 | 0.984 | 0.999 | 0.898 |
| NCI-H460 | 0.195 | 0.19 | 0.223 | 0.15 | 0.159 | 0.0309 | 0.0217 | 0.0281 | 0.0375 | 0.0205 | 0.483 | 0.697 | 0.574 | 0.489 | 0.545 | 0.863 | 0.977 | 0.927 | 0.679 |
| NCI-H1703 |  |  |  |  |  |  |  |  |  |  |  |  |  |  |  | 0.9 | 0.976 | 0.972 | 0.793 |
| NCI-H1792 | 0.697 | 0.663 | 0.616 | 0.587 | 0.554 | 0.407 | 0.437 | 0.358 | 0.394 | 0.284 | 0.371 | 0.233 | 0.179 | 0.258 | 0.138 | 0.995 | 0.89 | 0.912 | 0.536 |
| Calu-6 |  |  |  |  |  |  |  |  |  |  |  |  |  |  |  | 0.996 | 0.934 | 0.936 | 0.735 |
| SW 1573 | 0.264 | 0.268 | 0.265 | 0.346 | 0.259 | 0.292 | 0.429 | 0.198 | 0.152 | 0.208 | 0.295 | 0.272 | 0.27 | 0.244 | 0.228 | 1.06 | 1.17 | 1.21 | 0.985 |
| RERF-LC-KJ | 1.05 | 1.09 | 1 | 1.02 | 0.802 | 1.13 | 1.22 | 1.14 | 1.07 | 0.838 | 0.402 | 0.44 | 0.427 | 0.41 | 0.379 | 0.849 | 0.837 | 0.799 | 0.829 |
| EMC-BAC-2 | 0.518 | 0.51 | 0.504 | 0.494 | 0.432 | 1.12 | 1.2 | 1.13 | 1.11 | 0.812 | 0.535 | 0.63 | 0.497 | 0.509 | 0.428 | 0.87 | 0.905 | 0.859 | 0.724 |
| LK-2 | 0.58 | 0.486 |  | 0.294 | 0.266 | 0.17 | 0.187 | 0.2 | 0.184 | 0.17 | 0.402 | 0.218 | 0.179 | 0.188 | 0.135 | 0.801 | 1.01 | 0.823 | 0.949 |
